We go through 32 molecules from patent publication US11447505B1, “Pyrrolo[2,3-b]pyridine compounds and their use in the treatment of cancer” (priority 2017, dated 2022).

Experiment [1] concerns the target MRCKβ (Homo sapiens (Human), UniProt Q9Y5S2). As to the kind of experiment: MRCKβ kinase assay (IMAP fluorescence polarization). The class given is biochemical. Particulars: 1 μM ATP; read-out: MRCK-B Average Ki. The source says:
(§1) MRCKα, MRCKβ, ROCK1 and ROCK2 Kinase Assays
For orientation: Fluorescence polarisation rises when a labelled molecule tumbles more slowly, as on binding a larger partner.

Experiment [2] concerns the target MRCKα (Homo sapiens (Human), UniProt Q5VT25). Kind of experiment: MRCKα kinase assay (IMAP fluorescence polarization). Particulars: 1 μM ATP; read-out: MRCK-a Average Ki. The class given is biochemical.
Description: as §1

Experiment [3] has as its target ROCK1 (Homo sapiens (Human), UniProt Q13464). Particulars: read-out: ROCK1 Average Ki; 1 μM ATP.
Experiment [4] deals with ROCK2 (Homo sapiens (Human), UniProt O75116). Kind of experiment: ROCK2 kinase assay (IMAP fluorescence polarization). Type of experiment: biochemical. Particulars: 1 μM ATP; read-out: ROCK2 Average Ki.
Sequence of ROCK2 (O75116 whole entry): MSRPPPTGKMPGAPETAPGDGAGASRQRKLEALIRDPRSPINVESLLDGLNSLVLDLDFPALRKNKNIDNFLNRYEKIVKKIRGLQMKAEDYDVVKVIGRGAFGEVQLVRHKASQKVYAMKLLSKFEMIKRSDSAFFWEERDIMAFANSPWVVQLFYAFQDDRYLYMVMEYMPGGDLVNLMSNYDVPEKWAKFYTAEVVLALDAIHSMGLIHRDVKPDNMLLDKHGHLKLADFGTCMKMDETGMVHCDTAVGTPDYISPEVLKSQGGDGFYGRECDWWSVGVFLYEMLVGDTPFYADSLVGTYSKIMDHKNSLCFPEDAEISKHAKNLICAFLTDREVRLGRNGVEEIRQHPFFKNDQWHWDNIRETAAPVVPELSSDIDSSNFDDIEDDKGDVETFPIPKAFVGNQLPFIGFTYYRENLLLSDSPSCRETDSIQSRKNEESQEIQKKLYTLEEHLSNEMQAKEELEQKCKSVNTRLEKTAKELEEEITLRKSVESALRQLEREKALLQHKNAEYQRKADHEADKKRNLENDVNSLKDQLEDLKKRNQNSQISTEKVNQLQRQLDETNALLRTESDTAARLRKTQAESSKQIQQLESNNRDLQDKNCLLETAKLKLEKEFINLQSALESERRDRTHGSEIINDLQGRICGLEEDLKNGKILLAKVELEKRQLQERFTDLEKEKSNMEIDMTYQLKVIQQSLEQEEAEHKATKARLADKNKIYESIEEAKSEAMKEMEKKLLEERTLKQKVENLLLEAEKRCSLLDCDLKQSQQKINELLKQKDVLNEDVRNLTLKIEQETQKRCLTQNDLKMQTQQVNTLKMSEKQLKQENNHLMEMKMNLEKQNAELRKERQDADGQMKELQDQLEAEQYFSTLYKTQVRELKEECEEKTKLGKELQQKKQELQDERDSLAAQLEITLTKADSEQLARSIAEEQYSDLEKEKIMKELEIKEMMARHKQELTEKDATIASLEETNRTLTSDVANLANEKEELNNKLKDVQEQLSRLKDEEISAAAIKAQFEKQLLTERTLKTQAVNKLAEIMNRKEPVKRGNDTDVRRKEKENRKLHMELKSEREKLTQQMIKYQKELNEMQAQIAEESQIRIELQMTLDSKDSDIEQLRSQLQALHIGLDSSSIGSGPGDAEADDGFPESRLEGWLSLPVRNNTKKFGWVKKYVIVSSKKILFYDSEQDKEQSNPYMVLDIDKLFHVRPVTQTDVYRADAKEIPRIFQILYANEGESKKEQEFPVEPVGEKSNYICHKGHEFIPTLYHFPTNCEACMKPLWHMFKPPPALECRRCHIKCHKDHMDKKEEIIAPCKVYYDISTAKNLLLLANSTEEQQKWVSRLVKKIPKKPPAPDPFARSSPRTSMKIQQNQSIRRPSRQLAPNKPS

Sequence of MRCKα (Q5VT25 whole entry): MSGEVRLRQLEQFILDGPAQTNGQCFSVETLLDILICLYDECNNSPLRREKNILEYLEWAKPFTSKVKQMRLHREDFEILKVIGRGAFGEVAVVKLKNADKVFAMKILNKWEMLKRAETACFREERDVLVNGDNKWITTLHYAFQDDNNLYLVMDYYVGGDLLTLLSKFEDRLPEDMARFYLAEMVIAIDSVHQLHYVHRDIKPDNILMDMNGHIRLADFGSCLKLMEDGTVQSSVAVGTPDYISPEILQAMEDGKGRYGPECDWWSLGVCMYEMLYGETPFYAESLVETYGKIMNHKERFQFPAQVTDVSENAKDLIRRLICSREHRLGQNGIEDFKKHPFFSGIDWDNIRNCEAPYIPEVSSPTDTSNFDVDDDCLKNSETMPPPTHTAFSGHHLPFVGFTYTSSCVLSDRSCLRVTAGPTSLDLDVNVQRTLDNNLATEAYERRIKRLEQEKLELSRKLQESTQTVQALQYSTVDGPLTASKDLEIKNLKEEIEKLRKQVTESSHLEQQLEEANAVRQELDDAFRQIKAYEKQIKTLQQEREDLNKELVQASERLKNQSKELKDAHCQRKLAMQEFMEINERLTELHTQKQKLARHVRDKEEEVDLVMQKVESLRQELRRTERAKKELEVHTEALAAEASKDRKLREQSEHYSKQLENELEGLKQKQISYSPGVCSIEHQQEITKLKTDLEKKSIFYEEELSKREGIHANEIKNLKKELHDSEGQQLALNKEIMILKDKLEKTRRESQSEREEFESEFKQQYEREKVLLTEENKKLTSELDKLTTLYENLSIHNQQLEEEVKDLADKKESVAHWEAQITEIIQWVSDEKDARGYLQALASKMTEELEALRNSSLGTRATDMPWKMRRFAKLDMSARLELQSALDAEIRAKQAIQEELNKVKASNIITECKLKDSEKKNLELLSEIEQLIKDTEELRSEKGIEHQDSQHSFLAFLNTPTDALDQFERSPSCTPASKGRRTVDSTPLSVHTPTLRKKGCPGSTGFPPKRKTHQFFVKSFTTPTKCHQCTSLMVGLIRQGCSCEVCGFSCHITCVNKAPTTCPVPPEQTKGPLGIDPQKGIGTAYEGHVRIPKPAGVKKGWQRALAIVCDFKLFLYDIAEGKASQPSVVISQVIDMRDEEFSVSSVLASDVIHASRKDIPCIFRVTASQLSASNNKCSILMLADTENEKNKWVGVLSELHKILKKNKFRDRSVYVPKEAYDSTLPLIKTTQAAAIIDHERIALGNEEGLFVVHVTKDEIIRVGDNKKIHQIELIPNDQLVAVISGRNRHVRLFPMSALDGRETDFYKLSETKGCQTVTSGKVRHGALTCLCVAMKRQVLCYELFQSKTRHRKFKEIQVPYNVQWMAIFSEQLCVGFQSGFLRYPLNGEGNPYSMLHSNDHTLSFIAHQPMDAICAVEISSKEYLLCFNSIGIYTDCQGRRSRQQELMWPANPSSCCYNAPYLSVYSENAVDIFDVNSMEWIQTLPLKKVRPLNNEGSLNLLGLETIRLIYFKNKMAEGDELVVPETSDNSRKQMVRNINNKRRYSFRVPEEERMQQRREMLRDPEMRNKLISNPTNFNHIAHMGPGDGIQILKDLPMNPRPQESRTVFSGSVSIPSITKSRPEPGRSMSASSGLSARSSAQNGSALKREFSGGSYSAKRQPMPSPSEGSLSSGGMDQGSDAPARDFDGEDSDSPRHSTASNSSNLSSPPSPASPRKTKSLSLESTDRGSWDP
Sequence of ROCK1 (Q13464 2-1354 limits assumed): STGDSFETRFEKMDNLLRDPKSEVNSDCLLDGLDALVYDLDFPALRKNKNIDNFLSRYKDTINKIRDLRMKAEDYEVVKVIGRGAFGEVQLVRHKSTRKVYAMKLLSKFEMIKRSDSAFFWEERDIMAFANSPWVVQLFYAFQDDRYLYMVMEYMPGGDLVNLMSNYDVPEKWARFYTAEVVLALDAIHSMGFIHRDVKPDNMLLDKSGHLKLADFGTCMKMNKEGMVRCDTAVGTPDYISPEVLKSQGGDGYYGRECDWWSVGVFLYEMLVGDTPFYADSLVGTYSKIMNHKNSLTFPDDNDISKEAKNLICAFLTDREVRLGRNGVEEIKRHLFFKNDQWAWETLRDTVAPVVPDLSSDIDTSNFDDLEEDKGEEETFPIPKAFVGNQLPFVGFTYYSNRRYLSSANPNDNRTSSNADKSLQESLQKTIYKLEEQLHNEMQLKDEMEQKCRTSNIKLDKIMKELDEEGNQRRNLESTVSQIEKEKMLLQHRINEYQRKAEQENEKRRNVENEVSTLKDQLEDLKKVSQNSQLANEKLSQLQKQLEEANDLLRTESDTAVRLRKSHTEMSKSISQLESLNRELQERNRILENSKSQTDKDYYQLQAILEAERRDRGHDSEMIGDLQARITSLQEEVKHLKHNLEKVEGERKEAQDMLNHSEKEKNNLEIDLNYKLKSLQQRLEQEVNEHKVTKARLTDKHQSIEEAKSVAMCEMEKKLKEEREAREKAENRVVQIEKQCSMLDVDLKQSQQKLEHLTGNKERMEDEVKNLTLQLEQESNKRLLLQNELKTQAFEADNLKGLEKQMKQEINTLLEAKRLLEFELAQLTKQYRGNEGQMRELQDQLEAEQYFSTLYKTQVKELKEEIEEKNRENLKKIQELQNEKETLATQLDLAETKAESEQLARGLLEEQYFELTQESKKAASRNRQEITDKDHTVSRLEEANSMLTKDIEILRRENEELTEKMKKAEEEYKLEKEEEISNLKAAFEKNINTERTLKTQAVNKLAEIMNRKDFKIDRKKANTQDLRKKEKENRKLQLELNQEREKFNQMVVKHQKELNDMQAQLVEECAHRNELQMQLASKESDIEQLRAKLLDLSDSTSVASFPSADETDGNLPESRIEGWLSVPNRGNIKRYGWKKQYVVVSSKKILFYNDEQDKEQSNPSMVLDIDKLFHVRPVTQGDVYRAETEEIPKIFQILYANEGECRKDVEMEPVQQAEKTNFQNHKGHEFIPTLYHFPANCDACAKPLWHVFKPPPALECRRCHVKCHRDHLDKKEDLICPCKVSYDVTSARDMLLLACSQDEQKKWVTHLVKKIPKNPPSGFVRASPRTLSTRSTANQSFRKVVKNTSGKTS

With `NCC1CCCN(c2ccnc3[nH]cc(-c4cncnc4)c23)C1` (stereo not shown) [Example E86, [1-(3-pyrimidin-5-yl-1H-pyrrolo[2,3-b]pyridin-4-yl)-3-piperidyl]methanamine], the Ki in experiment [1] came to 1.85 nM; in experiment [2], 4.6 nM; in experiment [3] it was 8.2 nM; in experiment [4], 10.5 nM.

As to `CN[C@H]1CCCN(c2ccnc3[nH]cc(-c4cn[nH]c4)c23)C1` [Example E84, (3S)-N-methyl-1-[3-(1H-pyrazol-4-yl)-1H-pyrrolo[2,3-b]pyridin-4-yl]piperidin-3-amine], the Ki in experiment [1] came to 3.42 nM; in experiment [2], 0.522 nM; in experiment [3] it was 167 nM; in experiment [4], 37.2 nM.

Regarding `CN1CCCN(c2ccnc3[nH]cc(C#N)c23)CC1` [Example E30, 4-(4-methyl-1,4-diazepan-1-yl)-1H-pyrrolo[2,3-b]pyridine-3-carbonitrile], the Ki in experiment [1] stood at 5.73 nM; in experiment [2], 12.8 nM; in experiment [3], 24.3 nM; in experiment [4], 20.2 nM.

Consider `c1ncc(-c2c[nH]c3nccc(N4CCCCC4)c23)cn1` [Example E20, 4-(1-piperidyl)-3-pyrimidin-5-yl-1H-pyrrolo[2,3-b]pyridine], for which the results for the Ki in experiment [1], in experiment [2] and in experiment [4] were 40.7 nM, 14.2 nM and 516 nM, respectively.

Regarding `c1ncc(-c2c[nH]c3nccc(OC[C@@H]4CCNC4)c23)cn1` [Example E219, 3-pyrimidin-5-yl-4-[[(3R)-pyrrolidin-3-yl]methoxy]-1H-pyrrolo[2,3-b]pyridine], the Ki turned out to be 3.71 nM in experiment [1], 2.52 nM in experiment [2], 57.6 nM in experiment [3] and 52.6 nM in experiment [4].

In the case of `CN[C@H]1CCCN(c2ccnc3[nH]cc(-c4cnccn4)c23)C1` [Example E72, (3S)-N-methyl-1-(3-pyrazin-2-yl-1H-pyrrolo[2,3-b]pyridin-4-yl)piperidin-3-amine], the Ki in experiment [1] was 2.98 nM; in experiment [2], 0.629 nM; in experiment [3], 51100 nM; in experiment [4] it was 268 nM.

Take `c1ncc(-c2c[nH]c3nccc(N4CCCC5(CCCNC5)C4)c23)cn1` (stereo not shown) [Example E194, 2-(3-pyrimidin-5-yl-1H-pyrrolo[2,3-b]pyridin-4-yl)-2,8-diazaspiro[5.5]undecane]: the Ki in experiment [1] is 2.73 nM; in experiment [2], 0.652 nM; in experiment [3] it was 83.6 nM; in experiment [4] it was 54 nM.

Regarding `c1ncc(-c2c[nH]c3nccc(O[C@H]4CCCNC4)c23)cn1` [Example E222, 4-[[(3S)-3-piperidyl]oxy]-3-pyrimidin-5-yl-1H-pyrrolo[2,3-b]pyridine], the Ki in experiment [1] was 50.6 nM; in experiment [2], 28.4 nM; in experiment [3], 50900 nM; in experiment [4], 50700 nM.

With “4-morpholino-1H-pyrrolo[2,3-b]pyridine-3-carbonitrile [Example E33]”, the Ki came out at 87.1 nM in experiment [1], 196 nM in experiment [3] and 127 nM in experiment [4].

For `CN[C@H]1CCCN(c2ccnc3[nH]cc(-c4cncnc4)c23)[C@H]1C` (relative stereo) [Example E179, cis-N,2-dimethyl-1-(3-pyrimidin-5-yl-1H-pyrrolo[2,3-b]pyridin-4-yl)piperidin-3-amine], the Ki in experiment [1] was determined as 128 nM; in experiment [3], 1290 nM; in experiment [4], 1090 nM.

With `c1ncc(-c2c[nH]c3nccc(N4CCCC(N5CCNCC5)C4)c23)cn1` (stereo not shown) [Example E91, 4-(3-piperazin-1-yl-1-piperidyl)-3-pyrimidin-5-yl-1H-pyrrolo[2,3-b]pyridine], the Ki in experiment [1] was determined as 49.5 nM; in experiment [3] it was 231 nM; in experiment [4], 163 nM.

With `N#Cc1c[nH]c2nccc(N3CCCC3c3ccccc3)c12` (stereo not shown) [Example E113, 4-(2-phenylpyrrolidin-1-yl)-1H-pyrrolo[2,3-b]pyridine-3-carbonitrile], the Ki in experiment [1] was determined as 111 nM; in experiment [3] it was 388 nM; in experiment [4], 144 nM.

As to `NCCC1CCN(c2ccnc3[nH]cc(-c4cncnc4)c23)CC1` [Example E238], the Ki was 1.02 nM in experiment [1], 14.2 nM in experiment [3] and 18.4 nM in experiment [4].

As to `CN[C@H]1CCCN(c2ccnc3[nH]cc(-c4cccnc4)c23)C1` [Example E53, (3S)-N-methyl-1-[3-(3-pyridyl)-1H-pyrrolo[2,3-b]pyridin-4-yl]piperidin-3-amine], the Ki came to 1.27 nM in experiment [1], 50500 nM in experiment [3] and 335 nM in experiment [4].

Turning to `CN[C@H]1CCCN(c2ccnc3[nH]cc(-c4cnc(C)nc4)c23)C1` [Example E75, (3S)-N-methyl-1-[3-(2-methylpyrimidin-5-yl)-1H-pyrrolo[2,3-b]pyridin-4-yl]piperidin-3-amine], the Ki in experiment [1] is 25.4 nM; in experiment [3], 21700 nM; in experiment [4], 6420 nM.

As for `Nc1ccc(-c2c[nH]c3nccc(N4CCCCC4)c23)cn1` [Example E10, 5-[4-(1-piperidyl)-1H-pyrrolo[2,3-b]pyridin-3-yl]pyridin-2-amine], the Ki in experiment [1] amounted to 51.8 nM; in experiment [3], 74.9 nM; in experiment [4] it was 45.7 nM.

As for `c1ncc(-c2c[nH]c3nccc(N4CC5CNCC5C4)c23)cn1` (stereo not shown) [Example E199, 4-(2,3,3a,4,6,6a-hexahydro-1H-pyrrolo[3,4-c]pyrrol-5-yl)-3-pyrimidin-5-yl-1H-pyrrolo[2,3-b]pyridine], the values for the Ki in experiment [1], in experiment [3] and in experiment [4] were 6.32 nM, 222 nM and 199 nM, respectively.

With `c1ncc(-c2c[nH]c3nccc(NCC4CCNCC4)c23)cn1` [Example E102, N-(4-piperidylmethyl)-3-pyrimidin-5-yl-1H-pyrrolo[2,3-b]pyridin-4-amine], the figures for the Ki in experiment [1], in experiment [3] and in experiment [4] were 13.9 nM, 38.2 nM and 51.2 nM, respectively.

For `CN(C1CC1)[C@H]1CCCN(c2ccnc3[nH]cc(-c4cncnc4)c23)C1` (stereo in doubt) [Example E80], the Ki in experiment [1] turned out to be 8.3 nM; in experiment [3], 499 nM; in experiment [4] it was 228 nM.

Regarding `c1ncc(-c2c[nH]c3nccc(N4CCC[C@]5(CCCCN5)C4)c23)cn1` [Example E192, (6R)-8-(3-pyrimidin-5-yl-1H-pyrrolo[2,3-b]pyridin-4-yl)-1,8-diazaspiro[5.5]undecane], the results for the Ki in experiment [1], in experiment [3] and in experiment [4] were 8.33 nM, 50500 nM and 428 nM, respectively.

With `CCN[C@H]1CCCN(c2ccnc3[nH]cc(-c4ccnnc4)c23)C1` [Example E71, (3S)—N-ethyl-1-(3-pyridazin-4-yl-1H-pyrrolo[2,3-b]pyridin-4-yl)piperidin-3-amine], the Ki in experiment [1] is 0.802 nM; in experiment [3], 152 nM; in experiment [4], 73.9 nM.

Take `CNCC1CCCN(c2ccnc3[nH]cc(-c4cncnc4)c23)C1` (stereo not shown) [Example E90, N-methyl-1-[1-(3-pyrimidin-5-yl-1H-pyrrolo[2,3-b]pyridin-4-yl)-3-piperidyl]methanamine]: the figures for the Ki in experiment [1], in experiment [3] and in experiment [4] were 6.01 nM, 148 nM and 217 nM, respectively.

For `c1ncc(-c2c[nH]c3nccc(N[C@@H]4CCCNC4)c23)cn1` [Example E88, N-[(3R)-3-piperidyl]-3-pyrimidin-5-yl-1H-pyrrolo[2,3-b]pyridin-4-amine], the Ki is 7.21 nM in experiment [1], 85.2 nM in experiment [3] and 70.4 nM in experiment [4].

With `c1cc(N2CCC2)c2c(-c3cn[nH]c3)c[nH]c2n1` [Example E27, 4-(azetidin-1-yl)-3-(1H-pyrazol-4-yl)-1H-pyrrolo[2,3-b]pyridine], the results for the Ki in experiment [1], in experiment [3] and in experiment [4] were 130 nM, 713 nM and 381 nM, respectively.

In the case of `c1ncc(-c2c[nH]c3nccc(NCC4CCCNC4)c23)cn1` (stereo not shown) [Example E239], the Ki in experiment [1] stood at 7.85 nM; in experiment [3] it was 103 nM; in experiment [4], 93.3 nM.

As for `CN[C@H]1CCCN(c2ccnc3[nH]cc(-c4cncc(F)c4)c23)C1` [Example E50, (3S)-1-[3-(5-fluoro-3-pyridyl)-1H-pyrrolo[2,3-b]pyridin-4-yl]-N-methyl-piperidin-3-amine], the Ki was 0.729 nM in experiment [1], 2050 nM in experiment [3] and 578 nM in experiment [4].

For `Cc1[nH]ncc1-c1c[nH]c2nccc(N3CCCCC3)c12` [Example E104, 3-(5-methyl-1H-pyrazol-4-yl)-4-(1-piperidyl)-1H-pyrrolo[2,3-b]pyridine], the figures for the inhibitory constant (Ki) in experiment [1], in experiment [3] and in experiment [4] were 222 nM, 303 nM and 198 nM, respectively.

For `CN1CC[C@H](COc2ccnc3[nH]cc(-c4cncnc4)c23)C1` [Example E225, 4-[[(3S)-1-methylpyrrolidin-3-yl]methoxy]-3-pyrimidin-5-yl-1H-pyrrolo[2,3-b]pyridine], the Ki in experiment [1] turned out to be 11.4 nM; in experiment [3] it was 190 nM; in experiment [4], 140 nM.

Consider `c1ncc(-c2c[nH]c3nccc(NC4CCNCC4)c23)cn1` [Example E89, N-(4-piperidyl)-3-pyrimidin-5-yl-1H-pyrrolo[2,3-b]pyridin-4-amine], for which the Ki turned out to be 20.5 nM in experiment [1], 109 nM in experiment [3] and 92.7 nM in experiment [4].

For the molecule `c1cc(-c2c[nH]c3nccc(N4CCCCC4)c23)ncn1` [Example E4, 4-(1-piperidyl)-3-pyrimidin-4-yl-1H-pyrrolo[2,3-b]pyridine], the Ki stood at 15.5 nM in experiment [1], 28.3 nM in experiment [3] and 19.7 nM in experiment [4].

Regarding `N#Cc1c[nH]c2nccc(N3CCC3)c12` [Example E240], the Ki in experiment [1] turned out to be 8.31 nM; in experiment [3], 38.7 nM; in experiment [4] it was 21.6 nM.

`CN[C@@H]1CCCN(c2ccnc3[nH]cc(-c4cncnc4)c23)C1` [Example E77, (3R)-N-methyl-1-(3-pyrimidin-5-yl-1H-pyrrolo[2,3-b]pyridin-4-yl)piperidin-3-amine]: the Ki amounted to 10.5 nM in experiment [1], 379 nM in experiment [3] and 248 nM in experiment [4].

As usually defined, the Ki is the equilibrium dissociation constant of an inhibitor or competing ligand from its target.
